US6319501A, “Method of immunizing against hepatitis B virus” (Health Research, Inc., priority 1993, dated 2001)
Like-named read-outs stand apart in the source and are kept apart here. Ends that are not written are not given here.

Assays:
[1] = test system: antibodies recognizing the (139-147) segment of the S-protein (reaction with HBsAg); assay: Inhibition of attachment of antibodies recognizing S(139-147) to HBsAg-coated wells (comparative antigenicity of replacement set peptides); type: binding, rabbit
Protocol: FIG. 1. concerns the relative inhibitory activity of replacement set peptides on the reaction of antibodies recognizing the (139-147) segment of the S-protein with HBsAg. The concentration of each peptide at which the attachment of antibodies to solid phase HBsAg was reduced by 50% (C50) was determined. C50 of the parent peptide (sequence shown on top of the bars) was divided by C50 for each inhibitory peptide and the log10 of the ratio was plotted on the ordinate. Amino acid residues replacing amino acids in the parent sequence are shown on the top of each bar. The sequence numbers of residues being replaced in the parent sequence are shown on the bottom of the bar groups.
Wells of 96-well polystryene plates (Removawell, Immunolon II, Dynatech Laboratories, Chantilly, Va.) were coated with HBsAg subtype adw (200 μl; 100 μg/ml in 0.01 M Tris HCl pH 8.8) overnight at 20° C. The wells were then coated with a mixture of bovine serum albumin (BSA) and gelatin (10 and 2.5 mg/ml, respectively) in 0.14 M NaCl, 0.01 M Tris, 0.02% NaN3 (TS). […] The diluted antiserum, without added peptides, and normal rabbit serum served as positive and negative controls, respectively. Aliquots of the diluted rabbit sera with or without the peptides (200 μl) were added to the HBsAg-coated wells. After overnight incubation at 25° C., the plates were washed with 200 μl of TS and ^125 I-labeled anti-rabbit IgG (Kirkegaard & Perry Laboratories, Inc., Gaithersburg, Md.; 200,000 cpm diluted 1:1 with TSBG) were added to the wells. After incubation for 2 hours at 37° C., the wells were washed with TS and counted for radioactivity. Radioactivity, corrected for counts corresponding to diluted normal rabbit serum, was plotted against the log10 of the concentration of the respective peptides. […]

[2] = test system: Murine T cells primed with HBsAg, subtype ayr; assay: In vitro proliferation (3H-TdR incorporation) of T cells from Balb/c mice primed with HBsAg subtype ayr (FIG. 3); type: cell-based, mouse (Balb/c)
Description: FIG. 3. depicts relative T cell-stimulatory activity of replacement set peptides expressed as a percentage of stimulation elicited by the parent peptide. Murine T cells were obtained by nylon wool column purification of Balb/c lymph node cells primed with HBsAg, subtype ayr (Scripps Laboratories, San Diego, Calif.). For comparison, the T cell-stimulatory response to rHBsAg, subtype ad(32,657), HBsAg subtype ayr (54,640), parent peptide (16,073=100%) and media control (330) were examined at optimal concentrations for each antigen. Values shown in parentheses are mean cpms corresponding to ^3 H-TdR incorporation measured in triplicate. Amino acid residues replacing amino acids in the parent sequence are shown at the bottom of the bars.
(§1) Balb/c mice were immunized in the hind foot pads, either with 0.5 μg of RecombiVax HB or with HBsAg subtype ayw (Scripps Laboratories), on day 0, 14 and 21. One week after the last injection, the animals were sacrificed and the popliteal lymph nodes were collected. The nodes were teased apart and the dispersed cells were then washed twice in RPMI-1640 medium without any serum supplement and once in RPMI medium containing 10% bovine calf serum. A cell count was made and the cell concentration was adjusted so that T cell enrichment was then done at 1×10^8 cells/0.6g of packed nylon wool column. […]

[3] = test system: Murine T cells primed to rHBsAg, subtype ad; assay: In vitro proliferation (3H-TdR incorporation) of T cells from Balb/c mice primed with rHBsAg subtype ad (FIG. 4); type: cell-based, mouse (Balb/c); details: mice primed with HBsAg ad
Description: FIG. 4. depicts relative T cell-stimulatory activity of replacement set peptides expressed as a percentage of stimulation elicited by the parent peptide. Murine T cells were obtained by nylon wool column purification of Balb/c lymph node cells primed to rHBsAg, subtype ad (RecombiVax HB, Merck Sharp & Dohme). For comparison the T cells-stimulatory response to rHBsAg, subtype ad (97,024), rHBsAg subtype ayr (64,878), parent peptide (44,916=100%) and media control (1,873) was examined at optimal concentrations for each antigen. Values shown in parentheses are mean cpms corresponding to ^3 H-TdR incorporation measured in triplicate. Amino acid residues replacing amino acids in the parent sequence are shown at the bottom of the bars.
as §1

[4] = test system: Human peripheral blood mononuclear cells (PBMC); assay: In vitro proliferation (3H-TdR incorporation) of human PBMC / T cells from rHBsAg vaccinees (FIG. 5); type: cell-based; details: humans immunized with recombinant HBsAg vaccine
Description: Human peripheral blood mononuclear cells (PBMC) were obtained from volunteers who had received the full course of the rHBsAg vaccine (Merck Sharp & Dohme). Donor 1 .box-solid. Donor 2 z1 Donor 3 .quadrature. Donor 4 z2 For comparison average T cell-stimulatory response to rHBsAg subtype ad (146,478), parent peptide (96,930=100%) and media control (1,147) was examined at optimal concentrations for each antigen. Values expressed in parentheses are mean cpms of ^3 H-TdR incorporation of triplicate wells. Amino acid residues replacing amino acids in the parent sequence are shown at the bottom of the bars.
Sixty ml of blood was collected (in heparin containing syringes) from the antecubital vein of individuals who were vaccinated with a recombinant hepatitis B vaccine (RecombiVax HB; Merck, Sharp and Dohme). […]
Peripheral blood mononuclear cells were cultured in 96 well flat bottom plates at a density of 2.5×10^5 cells/100 μl per well in RPMI-1640 medium supplemented with 2mM glutamine, 100 units/ml penicillin, 100 μg/ml streptomycin, 50 μg/ml gentamycin and 10% human AB-positive serum. […] Proliferation, as measured by thymidine incorporation, was determined by liquid scintillation spectroscopy. Results are expressed as mean counts per minute (cpm) for triplicate cultures.

native HBsAg = details: after polymerization with glutaraldehyde; cited from earlier work
anti-HBs = details: cited from earlier work
[5] = test system: T-helper (Th) lymphocytes; details: humans immunized with HBsAg; linear and cyclic forms; cited from earlier work
[6] = test system: T-helper (Th) lymphocytes; details: mice immunized with HBsAg; linear and cyclic forms; cited from earlier work

Substance	inhibition of attachment of anti-HBs to HBsAg-coated wells, preliminary results (in words) [1]	T-cell proliferative response / tolerance of replacement (in words) [2]	T-cell proliferative response / tolerance of replacement (in words) [3]	further results
CTKPSDGNC	inhibited the attachment of anti-HBs to HBsAg-coated wells	much more effective in eliciting proliferation of T-cells from mice immunized with HBsAg ayr in comparison with the ad-specific peptide	most tolerated	IC50 ([1]; HBsAg-coated wells, rabbit antiserum to S(135-155) diluted 150-fold, read-out: concentration of peptide at which a 50% inhibition of anti-HBs attachment occurred (C50)): 56 nM; T-cell proliferative response / tolerance of replacement (in words) [4]: responded virtually equally
CTKPTDGNC [S(139-147) peptide with threonine at position 143, corresponding to S-protein subtype ad]	inhibited the attachment of anti-HBs to HBsAg-coated wells	most favored replacement	much more effective in eliciting proliferation of T-cells from mice immunized with HBsAg ad in comparison with the ay specific peptide	–
cyclic peptide corresponding to the sequence S(139-147): cyclic peptide S(139-147) from the S-protein subtype adw with a disulfide bond between residues (139-147)	–	–	–	antibodies elicited (in words) (native HBsAg): elicited antibodies reactive with native HBsAg; binding / affinity to anti-HBs (in words) (anti-HBs): affinity similar to that determined for the reaction between native HBsAg and anti-HBs
peptide S(139-147): peptide S(139-147) in both linear and cyclic forms (LYLPAGGSS; also: linear and cyclic forms; UniProt P03141 139-147, looked up, fragment)	–	–	–	proliferation of T-helper lymphocytes (in words) [5]: elicited the proliferation of T-helper (Th) lymphocytes; proliferation of T-helper lymphocytes (in words) [6]: elicited the proliferation of T-helper (Th) lymphocytes
